We go through eight molecules from ChEMBL document CHEMBL3232823, “Non-imidazole histamine H3 receptor ligands incorporating antiepileptic moieties” (Eur J Med Chem, 2014).

One may read the Ki as a measure of affinity in units of concentration, obtained from inhibition or displacement. Higher therefore signals a looser hold on the target.

Data set [1] relates to Rattus norvegicus. Nature of the data set: Anticonvulsant activity in Wistar rat assessed as protection against maximal electroshock-induced convulsions at 10 mg/kg, ip administered 30 mins before MES challenge. Also on record: dose 10 mg/kg. The data set is classed as functional, organism-based. Background: In the maximal electroshock model the usual endpoint is tonic extension of the hind limbs.

The target in another data set is Histamine H4 receptor (Homo sapiens, UniProt Q9H3N8). Nature of the data set: Displacement of [3H]histamine from human H4 receptor expressed in Sf9 cell membrane co-transfected with Galphai2 and Gbeta1gamma2 after 60 mins by liquid scintillation counting analysis. (Loss of bound radioactivity is the signal in a displacement assay; it reports binding, not function.)

The next data set addresses Histamine H1 receptor (Homo sapiens, UniProt P35367). Nature of the data set: Displacement of [3H]pyrilamine from human H1 receptor expressed in CHO cell membrane after 120 mins by liquid scintillation counting analysis. Type of data set: cell membranes.
A further data set addresses Histamine H3 receptor (Homo sapiens, UniProt Q9Y5N1). Briefly: Displacement of [3H]N-alpha-methylhistamine from human H3 receptor expressed in HEK-293 cell membrane after 90 mins by liquid scintillation counting analysis. Type of data set: cell membranes, HEK293.
Data set [2] has as its system Rattus norvegicus. Nature of the data set: Anticonvulsant activity against PTZ-kindled convulsion Wistar rat model assessed as prolongation of latency time to myoclonic convulsions at 10 mg/kg, ip administered 30 mins before PTZ challenge. Type of data set: functional, organism-based. Also on record: dose 10 mg/kg.
Data set [3] relates to Rattus norvegicus. Nature of the data set: Anticonvulsant activity against PTZ-kindled convulsion Wistar rat model assessed as decrease in total convulsion time at 10 mg/kg, ip administered 30 mins before PTZ challenge. The data set is classed as functional, organism-based. More on the design: dose 10 mg/kg.
Data set [4] concerns Rattus norvegicus. Briefly: Anticonvulsant activity against PTZ-kindled convulsion Wistar rat model assessed as reduction in convulsions at 1 mg/kg, ip administered 30 mins before PTZ challenge measured for 10 to 30 mins. The data set is classed as functional, organism-based. Also on record: dose 1 mg/kg.
The test system of data set [5] is Rattus norvegicus. Briefly: Anticonvulsant activity against PTZ-kindled convulsion Wistar rat model assessed as reduction in convulsions at 10 mg/kg, ip administered 30 mins before PTZ challenge measured for 10 to 30 mins. Type of data set: functional, organism-based. Also on record: dose 10 mg/kg.
In data set [6] the test system is Rattus norvegicus. Briefly: Anticonvulsant activity against PTZ-kindled convulsion Wistar rat model assessed as increase in latency time to clonic-tonic convulsions at 10 mg/kg, ip administered 30 mins before PTZ challenge. Type of data set: functional, organism-based. More on the design: dose 10 mg/kg.
Data set [7] has as its system Rattus norvegicus. Nature of the data set: Anticonvulsant activity against PTZ-kindled convulsion Wistar rat model assessed as latency for the first atypical behaviours at 10 mg/kg, ip administered 30 mins before PTZ challenge. Type of data set: functional, organism-based. Also on record: dose 10 mg/kg.
In data set [8] the test system is Rattus norvegicus. Nature of the data set: Anticonvulsant activity in Wistar rat assessed as protection against maximal electroshock-induced convulsions at 1 mg/kg, ip administered 30 mins before MES challenge. More on the design: dose 1 mg/kg. Type of data set: functional, organism-based.
For data set [9], the system named is Rattus norvegicus. Nature of the data set: Anticonvulsant activity in Wistar rat assessed as protection against maximal electroshock-induced convulsions at 1 to 10 mg/kg, ip administered 30 mins before MES challenge. The data set is classed as functional, organism-based.
Data set [10] relates to Rattus norvegicus. Briefly: Proconvulsant activity in maximal electroshock-induced convulsions Wistar rat model assessed as tonic hindlimb extensions at 1 to 10 mg/kg, ip administered 30 mins before MES challenge. Type of data set: ADME, organism-based. Also on record: dose 1-10 mg/kg, route intraperitoneal. To be noted: in vivo, 0.5 h.
In data set [11] the test system is Rattus norvegicus. Briefly: Anticonvulsant activity against PTZ-kindled convulsion Wistar rat model assessed as reduction in convulsions at 1 to 10 mg/kg, ip administered 30 mins before PTZ challenge measured for 10 to 30 mins. The data set is classed as functional, organism-based.

Active and inactive are the calls of the source. No cut-off for these calls is given here.

Sequence of Histamine H1 receptor (P35367 whole entry): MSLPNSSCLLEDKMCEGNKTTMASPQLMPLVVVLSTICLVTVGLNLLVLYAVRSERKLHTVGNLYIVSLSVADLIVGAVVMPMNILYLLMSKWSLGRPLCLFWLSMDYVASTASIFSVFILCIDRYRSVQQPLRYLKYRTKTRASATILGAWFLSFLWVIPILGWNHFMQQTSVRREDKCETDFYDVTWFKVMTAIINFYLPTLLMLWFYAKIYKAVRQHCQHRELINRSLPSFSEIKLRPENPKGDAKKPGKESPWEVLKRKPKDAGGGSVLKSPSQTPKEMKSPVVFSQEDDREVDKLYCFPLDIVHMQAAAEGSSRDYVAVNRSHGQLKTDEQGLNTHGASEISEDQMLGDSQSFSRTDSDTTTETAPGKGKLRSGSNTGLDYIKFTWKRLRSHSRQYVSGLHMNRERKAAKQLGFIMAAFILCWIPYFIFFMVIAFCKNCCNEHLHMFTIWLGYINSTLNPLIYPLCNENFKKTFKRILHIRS
Sequence of Histamine H4 receptor (Q9H3N8 whole entry): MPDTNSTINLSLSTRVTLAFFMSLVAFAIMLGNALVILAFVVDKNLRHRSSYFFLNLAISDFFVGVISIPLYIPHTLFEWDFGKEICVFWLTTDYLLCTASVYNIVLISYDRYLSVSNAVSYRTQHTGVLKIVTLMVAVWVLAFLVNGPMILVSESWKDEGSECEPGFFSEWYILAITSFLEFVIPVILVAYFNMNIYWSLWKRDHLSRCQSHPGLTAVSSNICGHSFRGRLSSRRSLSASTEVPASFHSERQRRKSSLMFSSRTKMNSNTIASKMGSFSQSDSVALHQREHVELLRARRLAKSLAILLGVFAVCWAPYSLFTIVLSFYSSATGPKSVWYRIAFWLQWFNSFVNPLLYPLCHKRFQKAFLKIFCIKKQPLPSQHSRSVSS
Sequence of Histamine H3 receptor (Q9Y5N1 whole entry): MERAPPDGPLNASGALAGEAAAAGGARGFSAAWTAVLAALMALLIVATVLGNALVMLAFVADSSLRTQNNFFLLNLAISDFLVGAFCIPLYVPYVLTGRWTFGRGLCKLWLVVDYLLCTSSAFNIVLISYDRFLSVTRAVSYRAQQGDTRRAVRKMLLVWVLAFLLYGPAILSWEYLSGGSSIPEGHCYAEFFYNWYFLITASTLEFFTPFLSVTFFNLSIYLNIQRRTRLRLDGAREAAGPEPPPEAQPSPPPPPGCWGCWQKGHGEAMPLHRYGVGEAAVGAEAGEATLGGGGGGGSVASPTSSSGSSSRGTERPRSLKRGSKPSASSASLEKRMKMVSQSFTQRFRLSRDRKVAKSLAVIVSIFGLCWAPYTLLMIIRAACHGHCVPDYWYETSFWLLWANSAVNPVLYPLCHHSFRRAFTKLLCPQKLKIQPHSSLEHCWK

In the case of `O=C1NC(=O)C(c2ccccc2)(c2ccccc2)N1`, the outcome in the data set on Rattus norvegicus [1] was Active.
As to `Clc1ccc(CCCOCCCN2CCCCC2)cc1` [PITOLISANT], the outcome with Rattus norvegicus [1] was Active. Besides, the Ki on Histamine H4 receptor is more than 10 µM.
At Histamine H1 receptor, `S=C(NC1CCCCC1)N1CCC(c2cnc[nH]2)CC1` [THIOPERAMIDE] gave a Ki of more than 10 µM.
For the molecule `O=C1NC(c2ccccc2)(c2ccccc2)C(=O)N1CCCN1CCCCC1`, the Ki is 0.562 µM on Histamine H3 receptor, 6.17 µM at Histamine H1 receptor and 490 µM on Histamine H4 receptor. For the same molecule, the result in the data set on Rattus norvegicus [2], in the data set on Rattus norvegicus [3], with Rattus norvegicus [6] and in the data set with Rattus norvegicus [8] was Active. The inhibition result in the data set with Rattus norvegicus [4] is “inactive”. The inhibition entry in the data set on Rattus norvegicus [5] was “Active”. Also, the outcome with Rattus norvegicus [7] was inactive.
In the case of `Cc1nnc(C)n1-c1ccc(OCCCN2CCCCC2)cc1`, the Ki at Histamine H3 receptor is 0.000933 µM; at Histamine H1 receptor, 29.5 µM; on Histamine H4 receptor, 20.4 µM. For the same molecule, in the data set with Rattus norvegicus [9], the result was inactive.
With `O=C1NC(c2ccccc2)(c2ccccc2)C(=O)N1Cc1ccc(OCCCN2CCCCC2)cc1`, the Ki on Histamine H3 receptor is 0.0759 µM; at Histamine H1 receptor, 2.24 µM; on Histamine H4 receptor, 9.33 µM. In the data set with Rattus norvegicus [10], the Activity result is “Toxic”. Moreover, the inhibition entry with Rattus norvegicus [11] is “inactive”. In the data set on Rattus norvegicus [9], the result was inactive.
As to `C[C@H](NCc1ccc(OCCCN2CCCCC2)cc1)C(N)=O`, the Ki at Histamine H3 receptor was 0.0427 µM; at Histamine H1 receptor, 31.6 µM; on Histamine H4 receptor, 331 µM. The outcome in the data set on Rattus norvegicus [9] was inactive.
For `Cc1nnc(-c2cccnc2)n1-c1ccc(OCCCN2CCCCC2)cc1`, in that order: 0.00024 µM, 10.5 µM, 1410 µM and “inactive”.
